US20230414771A1, “PREPARATION AND USE OF IMMUNOSTIMULATORY CONJUGATED COMPLEXES FOR TARGETED DELIVERY AND ACTIVATION” (YAFEI SHANGHAI BIOLOGY MEDICINE SCIENCE & TECHNOLOGY CO., …, priority 2020, published 2023)
Where a SMILES comes first, the peptide text is derived from it. [ ]: non-standard residue; d: D form. The star is where a group is joined. ξ: configuration not given here. X2 = CC(C)(C)c1nc(-c2cccc(NS(=O)(=O)c3c(F)cccc3F)c2F)c(-c2ccnc(N*)n2)s1; Thyronine(3,5,3'-I3) = N[C@@H](Cc1cc(I)c(Oc2ccc(O)c(I)c2)c(I)c1)C(=O)O; Hexanoyl(6-maleimido) = O=C1C=CC(=O)N1CCCCCC(=O)*; Propanoyl(3-maleimido) = O=C1C=CC(=O)N1CCC(=O)*; PEG6 = NCCOCCOCCOCCOCCOCCOCCC(=O)O; PEG4 = NCCOCCOCCOCCOCCC(=O)O; PEG3 = NCCOCCOCCOCCC(=O)O; PEG2 = NCCOCCOCCC(=O)O; ξL = CC(C)CC(N)C(=O)O

Columns and labels:
[1] = Water solubility test (observation and HPLC); format: physicochemical; settings: thermodynamic from solid
Experimental: The compounds prepared in accordance with the examples of the disclosure and the reference compounds C1, C2, C3 and C4 were lyophilized (−70° C.).

[2] = system: CT26 tumor; assay: CT26 tumor immune model, tumor suppression and CD8+ T cell analysis; format: in vivo, BALB/c mice; settings: for CD8:CD45 (%): CD8-positive among CD45-positive cells in tumor, flow cytometry; for Tumor inhibition rate (%) Day 28 / Tumor volume (mm^3) Day 28: drug 36 umol/kg once a week for three weeks, PD-1 antibody 5 mg/kg
Experimental: • 1) CT26 cells were purchased from ATCC. […] The corresponding 5×10^6 cells were injected subcutaneously into the back of […] mice. After the size of tumors reached at least 100 mm^3, the mice were randomized into groups. Treatment was then initiated, with the day of treatment initiation being Day 1. • 3) The course of treatment. The drug was administered at an equimolar dose of 36 umol/kg. The control group was given normal saline. The drug was administered once a week for three week. • 4) Tumor CD8+ T cell analysis. Tumor tissue was homogenized, individual cells in the tumor were filtered, dissociated and washed twice with buffer, and then incubated with leukocyte common antigen CD45-PE and CD8-FITC-labeled antibodies for 1 hour at room temperature. The cells were washed twice with phosphate buffered saline containing 1% fetal bovine serum, and then the proportion of T lymphocyte antigen (CD8)-positive cells in leukocyte common antigen (CD45)-positive cells was analyzed by flow cytometry. An increase in the ratio indicates an increase in T lymphocytes and therefore an improvement in the immunity of the animal to the tumor. • 5) The grouping and test results are shown in Table 7.

[3] = system: NAFLD model mice; assay: Nonalcoholic fatty liver disease (NAFLD) model mice, serum HDL-C and LDL-C; format: in vivo; settings: NAFLD (high-fat diet) C57 mice, IV twice a week for 8 weeks, 12 hour after last administration, normal group 100%; for Change from normal group HDL-C: serum HDL-C; for Change from normal group LDL-C: serum LDL-C
Experimental: • Methods: C57 mice were randomly divided into normal group (standard diet), model group (high-fat diet), simvastatin group (positive control, 3 mg/kg) and drug group (50 mg/kg), with 6 mice in each group. The normal group was fed with standard diet, and the other groups were fed with high-fat diet to induce NAFLD model. At the same time of modeling, the mice in each group were given the corresponding dose of 48 umol/kg medicine IV twice a week for 8 weeks in total. 12 hour after the last administration, the serum biochemical indicators were determined by automatic biochemical analyzer: High density lipoprotein cholesterol (HDL-C), and low density lipoprotein (LDL-C).

[4] = system: Human hepatoma HepG2 cells; assay: Human liver cancer HepG2 tumors in nude mice; format: in vivo; settings: Mus musculus, HepG2, iv, 672 h, read-out: Tumor inhibition rate (%) Day 28
Experimental: • 1. Animals: nude mice aged 6-8 weeks, all female. • 2. Preparation of tumor models
Human hepatoma HepG2 cells were purchased from ATCC and identified according to the instructions provided. […] Randomization was performed when the tumor size reached 100 mm^3.
Treatment was then initiated, and the day of initiation of treatment was counted as Day 1. • 3) Treatment process
According to the clinical application of the corresponding compound, the drug was administered intravenously (IV). The compound and the control drug were administered at a dose of 54 umol/kg, and DOX could only be administered at a dose of 18 umol/kg due to toxicity limitations.

Compound	solubility [1]	CD8:CD45 (%) [2]	therapeutic effect combined with PD-1, in words ([2]; combined with PD-1 versus single drug)	Tumor inhibition rate (%) Day 28 [2]	Tumor volume (mm^3) Day 28 [2]	Change from normal group HDL-C [3]	Change from normal group LDL-C [3]	inhibition in vivo at 54 µmol/kg [4]
CC(C)CC(NC(=O)[C@@H](CC(N)=O)NC(=O)[C@@H](C)NC(=O)[C@@H](C)NC(=O)CCOCCOCCOCCNC(=O)CCN1C(=O)C=CC1=O)C(=O)Nc1nccc(-c2sc(C(C)(C)C)nc2-c2cccc(NS(=O)(=O)c3c(F)cccc3F)c2F)n1 (stereo partly drawn) [QHL-090-dabrafenib] ({Propanoyl(3-maleimido)-PEG3}-[dA][dA][dN][ξL]-X2)	> 10000 µg/mL	7.4%	a certain synergistic effect	68.7%	589.7 ± 247.4 mm^3			
C[C@H](NC(=O)CCCCCN1C(=O)C=CC1=O)C(=O)N[C@@H](C)C(=O)N[C@@H](CC(N)=O)C(=O)N[C@@H](Cc1cc(I)c(Oc2ccc(O)c(I)c2)c(I)c1)C(=O)O [QHL-150-T3] ({Hexanoyl(6-maleimido)}-AAN[Thyronine(3,5,3'-I3)]-OH)	> 10000 µg/mL					86.8%	119.32%	
CCC(C)(C)C(=O)O[C@H]1C[C@@H](C)C=C2C=C[C@H](C)[C@H](CC[C@@H]3C[C@@H](O)CC(=O)O3)[C@H]21 [simvastatin, reference compound]						86.3%	118.3%	
C[C@H](NC(=O)CCOCCOCCOCCOCCNC(=O)CCN1C(=O)C=CC1=O)C(=O)N[C@@H](C)C(=O)N[C@@H](CC(N)=O)C(=O)N[C@@H](Cc1cc(I)c(Oc2ccc(O)c(I)c2)c(I)c1)C(=O)O [QHL-159-T3] ({Propanoyl(3-maleimido)-PEG4}-AAN[Thyronine(3,5,3'-I3)]-OH)	> 10000 µg/mL					97.7%	105.3%	
C[C@H](NC(=O)CCOCCOCCOCCOCCOCCOCCNC(=O)CCN1C(=O)C=CC1=O)C(=O)N[C@@H](C)C(=O)N[C@H](CC(N)=O)C(=O)N[C@@H](Cc1cc(I)c(Oc2ccc(O)c(I)c2)c(I)c1)C(=O)O [QHL-160-T3] ({Propanoyl(3-maleimido)-PEG6}-AA[dN][Thyronine(3,5,3'-I3)]-OH)	> 10000 µg/mL					89.4%	117.5%	
C[C@H](NC(=O)CCOCCOCCNC(=O)CCN1C(=O)C=CC1=O)C(=O)N[C@@H](C)C(=O)N[C@@H](CC(N)=O)C(=O)N[C@@H](Cc1cc(I)c(Oc2ccc(O)c(I)c2)c(I)c1)C(=O)O [QHL-157-T3] ({Propanoyl(3-maleimido)-PEG2}-AAN[Thyronine(3,5,3'-I3)]-OH)	> 10000 µg/mL					94.8%	110.7%	
CCOCc1nc2c(NC(=O)OCc3ccc(NC(=O)[C@H](CC(N)=O)NC(=O)[C@H](C)NC(=O)[C@H](C)NC(=O)CCCCCN4C(=O)C=CC4=O)cc3)nc3ccccc3c2n1CC(C)(C)O [QHL-140-resiquimod]		15.4%		81.9%	342.8 ± 112.9 mm^3			
CC(C)CC(NC(=O)[C@@H](CC(N)=O)NC(=O)[C@@H](C)NC(=O)[C@@H](C)NC(=O)CCOCCOCCNC(=O)CCN1C(=O)C=CC1=O)C(=O)Nc1nccc(-c2sc(C(C)(C)C)nc2-c2cccc(NS(=O)(=O)c3c(F)cccc3F)c2F)n1 (stereo partly drawn) [QHL-087-dabrafenib] ({Propanoyl(3-maleimido)-PEG2}-[dA][dA][dN][ξL]-X2)	> 10000 µg/mL	6.4%		64.0%	678.4 ± 348.7 mm^3			
COc1cccc2c1C(=O)c1c(O)c3c(c(O)c1C2=O)C[C@@](O)(C(=O)CO)C[C@@H]3O[C@H]1C[C@H](NC(=O)[C@H](CC(C)C)NC(=O)[C@H](CC(N)=O)NC(=O)[C@H](C)NC(=O)[C@H](C)NC(=O)CCOCCOCCOCCNC(=O)CCN2C(=O)C=CC2=O)[C@H](O)[C@H](C)O1 [QHL-090-DOX]								100%
